ChEMBL document CHEMBL3425473, “Synthesis and biological evaluation of boswellic acid-NSAID hybrid molecules as anti-inflammatory and anti-arthritic agents” (Eur J Med Chem, 2015)
The source made the active and inactive calls. The rule behind the calls is not given here.

What was measured:
Rattus norvegicus [1] = assay: In vivo inhibition of COX-2 activity in Complete Freund's adjuvant-induced arthritic albino Wistar rat serum assessed as decrease in peroxidase activity measured as TMPD oxidation rate at 10 mg/kg administered via gavage daily started from day 7 and continued till day 21 after CFA injection by colorimetric analysis; type: functional, organism-based; parameters: dose 10 mg/kg
SW982 = assay: Inhibition of IL-1 beta-induced LOX activity in human SW982 cells assessed as enzyme activity at LD50 treated for 24 hrs prior to incubation with IL-1 beta for 6 hrs (reference value: 100.0%); type: cell-based; parameters: scale not given: the % may be the effect or the level left
[2] = Cytotoxicity against human SW982 cells after 24 hrs by MTT assay; type: cell-based; settings: read-out: LD50
[3] = target: T1, Prostaglandin G/H synthase 2 (Homo sapiens) (UniProt P35354); assay: Inhibition of IL-1 beta-induced COX-2 activity in human SW982 cells assessed as enzyme activity at LD50 treated for 24 hrs prior to incubation with IL-1 beta for 6 hrs (reference value: 100.0%); type: cell-based; parameters: scale not given: the % may be the effect or the level left
T1 sequence (whole entry): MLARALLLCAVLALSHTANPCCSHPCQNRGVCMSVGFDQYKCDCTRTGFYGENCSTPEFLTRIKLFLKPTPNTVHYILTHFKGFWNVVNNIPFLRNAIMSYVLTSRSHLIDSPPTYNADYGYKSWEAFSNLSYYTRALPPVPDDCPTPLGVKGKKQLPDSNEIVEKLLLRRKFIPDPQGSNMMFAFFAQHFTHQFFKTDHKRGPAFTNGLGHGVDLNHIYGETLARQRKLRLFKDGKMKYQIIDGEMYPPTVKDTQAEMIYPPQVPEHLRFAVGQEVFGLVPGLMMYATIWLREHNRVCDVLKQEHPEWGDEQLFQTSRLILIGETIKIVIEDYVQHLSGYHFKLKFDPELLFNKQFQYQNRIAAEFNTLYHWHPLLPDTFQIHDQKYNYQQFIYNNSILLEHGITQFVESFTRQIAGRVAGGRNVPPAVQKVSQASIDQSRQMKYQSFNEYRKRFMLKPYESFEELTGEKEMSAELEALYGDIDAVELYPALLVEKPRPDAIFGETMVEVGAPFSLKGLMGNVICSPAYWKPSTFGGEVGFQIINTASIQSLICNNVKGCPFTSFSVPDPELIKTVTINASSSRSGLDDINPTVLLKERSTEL

Rattus norvegicus [4] = assay: Reduction in neutrophil infiltration in Complete Freund's adjuvant-induced arthritic albino Wistar rat ankle joint at 10 mg/kg administered via gavage daily started from day 7 and continued till day 21 after CFA injection by hematoxylin-eosin staining based microscopic analysis; type: functional, organism-based; parameters: dose 10 mg/kg

COC(=O)[C@]1(C)[C@@H]2CC[C@]3(C)[C@H](C(=O)C=C4[C@@H]5[C@@H](C)[C@H](C)CC[C@]5(C)CC[C@]43C)[C@@]2(C)CC[C@H]1OC(=O)Cc1c(C)n(C(=O)c2ccc(Cl)cc2)c2ccc(OC)cc12
inhibition (Rattus norvegicus [1]): Active

COC(=O)[C@]1(C)[C@@H]2CC[C@]3(C)[C@H](C(=O)C=C4[C@@H]5[C@@H](C)[C@H](C)CC[C@]5(C)CC[C@]43C)[C@@]2(C)CC[C@H]1OC(=O)Cc1ccccc1Nc1c(Cl)cccc1Cl
inhibition (Rattus norvegicus [1]): Active

COC(=O)[C@]1(C)[C@@H]2CC[C@]3(C)[C@H](CC=C4[C@@H]5[C@@H](C)[C@H](C)CC[C@]5(C)CC[C@]43C)[C@@]2(C)CC[C@H]1OC(=O)Cc1c(C)n(C(=O)c2ccc(Cl)cc2)c2ccc(OC)cc12
inhibition (Rattus norvegicus [1]): Active

COC(=O)[C@]1(C)[C@@H]2CC[C@]3(C)[C@H](CC=C4[C@@H]5[C@@H](C)[C@H](C)CC[C@]5(C)CC[C@]43C)[C@@]2(C)CC[C@H]1OC(=O)Cc1ccccc1Nc1c(Cl)cccc1Cl
inhibition (Rattus norvegicus [1]): Active

COC(=O)[C@]1(C)[C@@H]2CC[C@]3(C)[C@H](CC=C4[C@@H]5[C@@H](C)[C@H](C)CC[C@]5(C)CC[C@]43C)[C@@]2(C)CC[C@H]1OC(=O)C(C)c1ccc(CC(C)C)cc1 (mixture of isomers)
Activity (SW982): 65.8% | CC50 at 24 h [2]: 62.6 µM | inhibition (Rattus norvegicus [1]): Active | Activity [3]: 30.2% | inhibition (Rattus norvegicus [4]): Active

COC(=O)[C@]1(C)[C@@H]2CC[C@]3(C)[C@H](C(=O)C=C4[C@@H]5[C@@H](C)[C@H](C)CC[C@]5(C)CC[C@]43C)[C@@]2(C)CC[C@H]1OC(=O)C(C)c1ccc(CC(C)C)cc1 (mixture of isomers)
Activity (SW982): 60.2% | CC50 at 24 h [2]: 40.6 µM | inhibition (Rattus norvegicus [1]): Active | Activity [3]: 27.7% | inhibition (Rattus norvegicus [4]): Active

COC(=O)[C@]1(C)[C@@H]2CC[C@]3(C)[C@H](C(=O)C=C4[C@@H]5[C@@H](C)[C@H](C)CC[C@]5(C)CC[C@]43C)[C@@]2(C)CC[C@H]1OC(=O)C(C)c1ccc2cc(OC)ccc2c1 (mixture of isomers)
inhibition (Rattus norvegicus [1]): Active

COC(=O)[C@]1(C)[C@@H]2CC[C@]3(C)[C@H](CC=C4[C@@H]5[C@@H](C)[C@H](C)CC[C@]5(C)CC[C@]43C)[C@@]2(C)CC[C@H]1OC(=O)C(C)c1ccc2cc(OC)ccc2c1 (mixture of isomers)
inhibition (Rattus norvegicus [1]): Active

C[C@H]1[C@H](C)CC[C@]2(C)CC[C@]3(C)C(=CC(=O)[C@@H]4[C@@]5(C)CC[C@@H](O)[C@](C)(C(=O)O)[C@@H]5CC[C@]43C)[C@H]12 [11-KETO BOSWELLIC ACID]
Activity (SW982): 72.7% | CC50 at 24 h [2]: 82 µM | inhibition (Rattus norvegicus [1]): Active | Activity [3]: 27.4% | inhibition (Rattus norvegicus [4]): Active

C[C@H]1[C@H](C)CC[C@]2(C)CC[C@]3(C)C(=CC[C@@H]4[C@@]5(C)CC[C@@H](O)[C@](C)(C(=O)O)[C@@H]5CC[C@]43C)[C@H]12 [BOSWELLIC ACID]
Activity (SW982): 44% | CC50 at 24 h [2]: 70.2 µM | Activity [3]: 50.8%

CC(C)Cc1ccc(C(C)C(=O)O)cc1 (configuration not stated) [IBUPROFEN]
CC50 at 24 h [2]: 93 µM | inhibition (Rattus norvegicus [1]): Active | inhibition (Rattus norvegicus [4]): Active
